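Results reflect a 48-hour exposure of cells in 96-well plates to compound at five concentrations. Abbreviation: GI50, concentration required for 50% inhibition of growth.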 Calls of active or inactive are those of the source. Rule as the data show it: active = GI50 up to about 1.1 µM and inactive = higher.
Assays:
Assay in all cases: inhibition of tumour cell growth, NCI panel, 48 h
[1] = test system: CCRF-CEM
[2] = test system: HT-29
[3] = test system: U-251
[4] = test system: OVCAR-8
[5] = test system: TK-10
[6] = test system: OVCAR-3
[7] = test system: UACC-257
[8] = test system: SR
[9] = test system: OVCAR-5
[10] = test system: RPMI-8226
[11] = test system: OVCAR-4
[12] = test system: HCT-116
[13] = test system: SW-620
[14] = test system: SN12C
[15] = test system: SF-295
[16] = test system: IGROV-1
[17] = test system: EKVX

Measured: GI50

COC(=O)C12CC(C3CC31)C1CC12 (centres undefined)
inactive: [1] > 100 µM | [2] > 100 µM | [3] > 100 µM | [4] > 100 µM | [5] > 100 µM | [6] > 100 µM | [7] > 100 µM | [8] > 100 µM | [9] > 100 µM | [10] > 100 µM | [11] > 100 µM | [12] > 100 µM | [13] > 100 µM | [14] > 100 µM | [15] > 100 µM | [16] > 100 µM

O=c1/c(=C/c2ccccc2[N+](=O)[O-])sc2nnc(-c3cccnc3)n12
inactive: [1] 55.8 µM | [2] > 100 µM | [4] > 100 µM | [5] > 100 µM | [6] > 100 µM | [7] > 100 µM | [8] 76.7 µM | [17] > 100 µM | [9] > 100 µM | [10] > 100 µM | [11] > 100 µM | [12] > 100 µM | [13] 7.03 µM | [14] > 100 µM | [15] > 100 µM | [16] > 100 µM

[O-][n+]1c(-c2ccccc2)oc2ccccc21
inactive: [1] > 62.1 µM | [2] 21.4 µM | [3] 18.9 µM | [4] 15.9 µM | [5] 26.6 µM | [6] 18.5 µM | [7] 7.71 µM | [8] > 100 µM | [17] 26.7 µM | [9] 33.8 µM | [10] > 22.6 µM | [11] 24.5 µM | [12] 13.1 µM | [13] 16.6 µM | [14] 14.4 µM | [15] 14 µM | [16] 34.1 µM

COc1ccc2ccc3c(c2c1)CN1CCc2cc(OC)c(OC)cc2C1C3 (centres undefined)
inactive: [1] > 100 µM | [2] > 100 µM | [3] > 100 µM | [4] > 100 µM | [5] > 100 µM | [6] > 100 µM | [7] > 100 µM | [8] > 100 µM | [17] > 100 µM | [9] > 100 µM | [10] > 100 µM | [11] > 100 µM | [13] > 100 µM | [14] > 100 µM | [15] > 100 µM | [16] > 100 µM

CCN(CC)CCNc1ccc2ncn3c4cc(O)ccc4c(=O)c1c23
inactive: [1] 1.32 µM | [2] 1.95 µM | [3] 1.53 µM | [4] 1.15 µM | [5] 6.65 µM | [6] 3.37 µM | [7] 5.37 µM | [8] 2.26 µM | [17] 8.77 µM | [9] 11 µM | [10] 2.17 µM | [11] 2.45 µM | [12] 1.57 µM | [13] 1.88 µM | [14] 3.11 µM | [15] 2.5 µM | [16] 4.25 µM

Cc1cc(C)c(-c2noc(-c3ccc(Cl)cc3)c2C2=NCCCN2)c(C)c1
inactive: [1] 20.6 µM | [2] 13.5 µM | [3] 7.57 µM | [4] 26.7 µM | [6] 28 µM | [7] 15.1 µM | [8] 26.5 µM | [17] 18 µM | [9] 31.6 µM | [10] 16.2 µM | [11] 97.1 µM | [12] 4.57 µM | [13] 23.4 µM | [14] 19.1 µM | [15] 11.2 µM | [16] 32.1 µM

CC12CO[C@@](C)(CC(S(=O)(=O)c3ccccc3)C1)O2 (some centres undefined)
inactive: [1] > 100 µM | [2] > 100 µM | [3] > 100 µM | [4] > 100 µM | [6] > 100 µM | [7] > 100 µM | [8] > 100 µM | [17] > 100 µM | [9] > 100 µM | [10] > 100 µM | [11] > 100 µM | [12] > 100 µM | [13] > 100 µM | [14] > 100 µM | [15] > 100 µM | [16] > 100 µM
